Measurements: the supplement of paper PMC10627819

What was measured:
S. pneumoniae D39V [1] = experiment: fitness (endpoint OD595 vs no drug) (fraction); higher = more growth
Method in brief: (§1)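 Bacterial fitness was scored as optical density at the stationary-phase transition relative to the robust mean of no-drug control wells. Scores are capped at 1. The growth data were OD595 readings every 30 min for 14 h at 37 °C, background-subtracted against the first reading, from 384-well plates inoculated at OD595 0.01 in TSB, LB Lennox or CY.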

S. aureus Newman [2] = experiment: as above
Method in brief: as §1

S. aureus DSM 20231 = experiment: Bliss interaction score (quartile over a dose matrix) (fitness difference); higher = more antagonism (negative = synergy)
Method in brief: (§2)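 Each OD595 reading at entry into stationary phase was scaled to the robust mean of the untreated wells on its plate, with a ceiling of 1. These ratios define fitness, and single-drug fitness was inferred from combinations. The Bliss score compares observed fitness with the product-based expectation and is reported as quartiles across all replicate types, technical, biological and donor/recipient.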

B. subtilis 168 = experiment: as above
Method in brief: as §2

S. pneumoniae D39V [3] = experiment: as above
Method in brief: as §2

S. aureus Newman [4] = experiment: as above
Method in brief: as §2
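For Bliss interaction score (quartile over a dose matrix) in this document: first quartile when negative (synergy) and third quartile when positive (antagonism).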
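For fitness (endpoint OD595 vs no drug) in this document: OD595 on entry to stationary phase over no-drug wells; at most 1.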

CC1(C)S[C@@H]2[C@H](NC(=O)[C@H](N)c3ccc(O)cc3)C(=O)N2[C@H]1C(=O)O [Amoxicillin] + CN[C@@H]1[C@H](O[C@H]2[C@H](O[C@H]3[C@H](O)[C@@H](O)[C@H](N=C(N)N)[C@@H](O)[C@@H]3N=C(N)N)O[C@@H](C)[C@]2(O)C=O)O[C@@H](CO)[C@H](O)[C@H]1O [Streptomycin]
fitness
Conditions	first compound 0.0008 µg/mL	first compound 0.0015 µg/mL	first compound 0.003 µg/mL	first compound 0.0625 µg/mL	first compound 0.125 µg/mL	first compound 0.25 µg/mL
S. aureus Newman [2], partner 1 µg/mL	–	–	–	0.857	0.856	0.845
S. aureus Newman [2], partner 2 µg/mL	–	–	–	0.823	0.792	0.798
S. pneumoniae D39V [1], partner 2 µg/mL	0.979	0.931	0.899	–	–	–
S. pneumoniae D39V [1], partner 4 µg/mL	0.947	0.877	0.866	–	–	–
S. pneumoniae D39V [1], partner 8 µg/mL	0.968	0.929	0.895	–	–	–

one replicate
Conditions	fitness
S. aureus Newman [2], first compound 0.0625 µg/mL, partner 8 µg/mL	0.0265
S. aureus Newman [2], first compound 0.125 µg/mL, partner 8 µg/mL	0.0373
S. aureus Newman [2], first compound 0.25 µg/mL, partner 8 µg/mL	0.0414
S. pneumoniae D39V [1], first compound 0.0008 µg/mL, partner 16 µg/mL	0.807
S. pneumoniae D39V [1], first compound 0.0015 µg/mL, partner 16 µg/mL	0.749
S. pneumoniae D39V [1], first compound 0.003 µg/mL, partner 16 µg/mL	0.724
S. pneumoniae D39V [1], first compound 0.006 µg/mL, partner 2 µg/mL	0.488
S. pneumoniae D39V [1], first compound 0.006 µg/mL, partner 4 µg/mL	0.413
S. pneumoniae D39V [1], first compound 0.006 µg/mL, partner 8 µg/mL	0.274

Conditions	Bliss interaction score
B. subtilis 168	-0.054
S. aureus DSM 20231	-0.0777
S. aureus Newman [4]	-0.0764
S. pneumoniae D39V [3]	0.0594

CC1(C)S[C@@H]2[C@H](NC(=O)[C@H](N)c3ccc(O)cc3)C(=O)N2[C@H]1C(=O)O [Amoxicillin] + CO/N=C(\C(=O)N[C@@H]1C(=O)N2C(C(=O)O)=C(COC(N)=O)CS[C@H]12)c1ccco1 [Cefuroxime]
fitness, S. aureus Newman [2], one replicate
Conditions	first compound 0.0625 µg/mL	first compound 0.125 µg/mL	first compound 0.25 µg/mL
partner 0.04875 µg/mL	0.944	0.932	0.841
partner 0.0975 µg/mL	0.895	0.804	0.747
partner 0.195 µg/mL	0.895	0.805	0.772

Conditions	Bliss interaction score
B. subtilis 168	0.0792
S. aureus DSM 20231	-0.127
S. aureus Newman [4]	0.097
S. pneumoniae D39V [3]	0.0491

CC1(C)S[C@@H]2[C@H](NC(=O)[C@H](N)c3ccc(O)cc3)C(=O)N2[C@H]1C(=O)O [Amoxicillin] + O=C(O)c1cn(C2CC2)c2cc(N3CCNCC3)c(F)cc2c1=O [Ciprofloxacin]
Conditions	fitness
S. aureus Newman [2], first compound 0.0625 µg/mL, partner 0.0375 µg/mL	0.734
S. aureus Newman [2], first compound 0.0625 µg/mL, partner 0.075 µg/mL	0.656
S. pneumoniae D39V [1], first compound 0.0008 µg/mL, partner 0.125 µg/mL	0.93
S. pneumoniae D39V [1], first compound 0.0008 µg/mL, partner 0.25 µg/mL	0.834
S. pneumoniae D39V [1], first compound 0.0015 µg/mL, partner 0.125 µg/mL	0.94
S. pneumoniae D39V [1], first compound 0.0015 µg/mL, partner 0.25 µg/mL	0.828
S. pneumoniae D39V [1], first compound 0.003 µg/mL, partner 0.125 µg/mL	0.934
S. pneumoniae D39V [1], first compound 0.003 µg/mL, partner 0.25 µg/mL	0.826
S. pneumoniae D39V [1], first compound 0.003 µg/mL, partner 0.5 µg/mL	0.747

fitness, one replicate
Conditions	partner 0.078 µg/mL	partner 0.125 µg/mL	partner 0.156 µg/mL	partner 0.25 µg/mL	partner 0.312 µg/mL	partner 0.5 µg/mL
S. aureus Newman [2], first compound 0.0625 µg/mL	0.327	–	0.075	–	0.0582	–
S. aureus Newman [2], first compound 0.125 µg/mL	0.192	–	0.0621	–	0.038	–
S. aureus Newman [2], first compound 0.25 µg/mL	0.144	–	0.056	–	0.0663	–
S. pneumoniae D39V [1], first compound 0.006 µg/mL	–	0.549	–	0.474	–	0.453

Conditions	Bliss interaction score
B. subtilis 168	-0.063
S. aureus DSM 20231	-0.0788
S. aureus Newman [4]	-0.0561
S. pneumoniae D39V [3]	0.0751

CO/N=C(\C(=O)N[C@@H]1C(=O)N2C(C(=O)[O-])=C(C[N+]3(C)CCCC3)CS[C@H]12)c1csc(N)n1 [Cefepime] + C/C(=C\C(=O)OCCCCCCCCC(=O)O)C[C@@H]1OC[C@H](C[C@@H]2O[C@H]2[C@@H](C)[C@H](C)O)[C@@H](O)[C@H]1O [Pseudomonic acid]
fitness, S. pneumoniae D39V [1]
Conditions	first compound 0.007 µg/mL	first compound 0.0078 µg/mL	first compound 0.014 µg/mL	first compound 0.0155 µg/mL	first compound 0.028 µg/mL	first compound 0.031 µg/mL
partner 0.03 µg/mL	≥ 1	0.93	≥ 1	0.945	≥ 1	0.747
partner 0.06 µg/mL	0.924	0.814	0.976	0.796	0.968	0.631
partner 0.12 µg/mL	0.583	0.578	0.631	0.56	0.568	0.382

fitness, S. aureus Newman [2], one replicate
Conditions	first compound 0.125 µg/mL	first compound 0.25 µg/mL	first compound 0.5 µg/mL
partner 0.0313 µg/mL	0.0486	0.044	0.0558
partner 0.0625 µg/mL	0.0381	0.0306	0.0329
partner 0.125 µg/mL	0.0329	0.0557	0.0514

Conditions	Bliss interaction score
B. subtilis 168	0.0521
S. aureus DSM 20231	0.0141
S. aureus Newman [4]	0.0093
S. pneumoniae D39V [3]	0.0923

CO/N=C(\C(=O)N[C@@H]1C(=O)N2C(C(=O)[O-])=C(C[N+]3(C)CCCC3)CS[C@H]12)c1csc(N)n1 [Cefepime] + CC1=C(C(=O)O)N2C(=O)[C@@H](NC(=O)[C@H](N)c3ccccc3)[C@H]2SC1 [Cephalexin]
fitness
Conditions	first compound 0.007 µg/mL	first compound 0.014 µg/mL	first compound 0.028 µg/mL	first compound 0.125 µg/mL	first compound 0.25 µg/mL	first compound 0.5 µg/mL
S. aureus Newman [2], partner 0.25 µg/mL	–	–	–	0.941	0.876	0.843
S. aureus Newman [2], partner 0.5 µg/mL	–	–	–	0.939	0.867	0.8
S. aureus Newman [2], partner 1 µg/mL	–	–	–	0.969	0.922	0.861
S. pneumoniae D39V [1], partner 1 µg/mL	0.93	0.923	0.584	–	–	–
S. pneumoniae D39V [1], partner 2 µg/mL	0.101	0.0733	0.0074	–	–	–
S. pneumoniae D39V [1], partner 4 µg/mL	0.0209	0.0355	0.015	–	–	–

fitness, S. pneumoniae D39V [1], one replicate
Conditions	first compound 0.0078 µg/mL	first compound 0.0155 µg/mL	first compound 0.031 µg/mL
partner 0.125 µg/mL	≥ 1	0.94	0.434
partner 0.25 µg/mL	0.988	0.96	0.529
partner 0.5 µg/mL	≥ 1	0.925	0.297

Conditions	Bliss interaction score
B. subtilis 168	0.0474
S. aureus DSM 20231	0.0619
S. aureus Newman [4]	-0.0529
S. pneumoniae D39V [3]	-0.105
